Reference: ChEMBL document CHEMBL1140220, “Synthetic and crystallographic studies of a new inhibitor series targeting Bacillus anthracis dihydrofolate reductase” (J Med Chem, 2008)

Target: T1, Dihydrofolate reductase (Homo sapiens, UniProt P00374)
T1 sequence (P00374 whole entry): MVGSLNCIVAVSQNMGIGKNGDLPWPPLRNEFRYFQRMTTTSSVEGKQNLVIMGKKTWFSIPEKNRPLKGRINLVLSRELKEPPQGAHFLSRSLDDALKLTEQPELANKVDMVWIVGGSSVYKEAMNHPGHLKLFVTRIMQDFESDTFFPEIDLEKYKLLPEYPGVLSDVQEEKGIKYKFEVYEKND

| Structure (SMILES) | IC50 |
| --- | --- |
| CCc1nc(N)nc(N)c1C#CCc1ccccc1 | 0.36 µM |
| CCc1nc(N)nc(N)c1C#CCc1cccc(OC)c1OC | 0.13 µM |
